From article PMC3179492, “HIV Protease Inhibitors Act as Competitive Inhibitors of the Cytoplasmic Glucose Binding Site of GLUTs with Differing Affinities for GLUT1 and GLUT4” (PLoS ONE, 2011)
Several values for one entry are separate records, joined by “and”; a condition that tells them apart may be missing. Equal values may be shown once. Read-outs that look alike come from different tables or passages of the source.

What was measured:
[1] = system: 3T3-L1 fibroblasts; assay: 2-Deoxyglucose uptake in 3T3-L1 fibroblasts (express only GLUT1); format: cell-based; conditions: 3T3-L1 fibroblasts
Description: 3T3-L1 fibroblasts were grown to confluency in Dulbecco's modified Eagle's medium (DMEM) supplemented with 10% calf serum. The uptake of [^3H]2-Deoxyglucose (50 µM) was measured in Krebs-Ringer phosphate buffer for 6 min at 37°C as previously described. HIV protease inhibitors were added 6 min prior to the start of the reaction. Non-specific uptake measured in the presence of 20 µM cytochalasin B (Sigma) was subtracted from the experimental values.

[2] = target: T1, GLUT4 (Mus musculus, UniProt P14142); assay: ATB-BMPA photolabeling of low-density microsomes (LDM) from 3T3-L1 adipocytes, GLUT4; format: binding; set-up: LDM contains small intracellular vesicles of GLUT4 and GLUT1; endogenous in cells; host or cells: low-density microsome fraction of differentiated 3T3-L1 adipocytes; conditions: for IC50: LDM 200 µg, biotinylated ATB-BMPA 50 µM, mean ± S.E., n = 3, read-out: Half-maximal inhibition (IC50) of ATB-BMPA binding to GLUT4; for Selectivity GLUT4 vs GLUT1, inhibition of ATB-BMPA labeling: LDM of 3T3-L1 adipocytes
T1 sequence (P14142 1-509): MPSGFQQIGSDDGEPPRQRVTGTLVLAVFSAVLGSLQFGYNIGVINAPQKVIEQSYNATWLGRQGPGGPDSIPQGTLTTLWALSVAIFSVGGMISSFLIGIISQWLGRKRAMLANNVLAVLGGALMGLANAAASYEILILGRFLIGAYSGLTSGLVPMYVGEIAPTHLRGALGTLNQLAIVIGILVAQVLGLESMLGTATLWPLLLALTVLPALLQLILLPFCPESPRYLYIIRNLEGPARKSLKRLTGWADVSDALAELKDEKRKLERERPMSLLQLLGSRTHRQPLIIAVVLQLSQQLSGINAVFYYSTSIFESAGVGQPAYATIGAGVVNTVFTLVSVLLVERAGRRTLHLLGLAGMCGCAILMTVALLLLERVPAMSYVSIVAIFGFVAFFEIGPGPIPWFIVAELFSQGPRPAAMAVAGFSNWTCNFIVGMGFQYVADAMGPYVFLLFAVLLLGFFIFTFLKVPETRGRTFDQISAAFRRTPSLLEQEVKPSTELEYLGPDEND
Description: (§1) 3T3-L1 fibroblasts were grown to confluency and 48 h later subjected to differentiation as previously described. 3T3-L1 adipocytes were used 10 – 14 days after differentiation. Six culture dishes (15 cm) of adipocytes were serum-starved overnight, washed 3 times with ice-cold HES buffer (50 mM Hepes, pH 7.4, 255 mM sucrose, and 1 mM EDTA) containing Roche complete protease inhibitors (Roche Applied Science, Mannheim, Germany), scraped into 5 ml of the same buffer, and then homogenized with either a ball-bearing homogenizer or with a Potter-Elvehjem tissue grinder and a PTFE pestle. The low-density microsome (LDM) fraction was obtained by differential centrifugation as described previously. LDM were resuspended in phosphate buffer (25 mM phosphate, pH 7.4, 100 mM NaCl, 5% glycerol) containing complete Roche protease inhibitors.
(§2) Inhibitors were added to LDM (200 µg protein unless otherwise stated) for 10 min at room temperature. Samples (final volume 110 µl) were then incubated for 10 min at room temperature in the dark with biotinylated ATB-BMPA (50 µM final concentration) and then placed on ice prior to UV irradiation. Reactions were transferred to a 24-well low protein retention culture dish (Costar, Corning, NY) and then irradiated at room temperature 5 cm from a Green Spot UV lamp for 1 min (30 sec of light, followed by 30 sec of darkness, followed by 30 sec of light).
(§3) 20 µl of BSA (1.5 mg/ml final concentration) was added to the UV irradiated samples in a siliconized eppendorph tube. Excess biotinylated ATB-BMPA label was removed using a 0.5 ml Zeba Spin Desalting Column (Pierce). Biotinylated proteins were isolated essentially as described previously. Membranes were solubilized for 30 min at 4°C with 2% Thesit detergent buffer containing protease inhibitors. After centrifugation at 16,000 x g for 10 min, the supernatants were incubated overnight at 4°C with 50 µl of high capacity Streptavidin Agarose resin (Pierce). Precipitates were washed 3 times with 1% Thesit detergent buffer, twice with 0.1% Thesit detergent buffer, and once with phosphate buffer. Biotinylated proteins were eluted at 95 – 100°C for 20 min in 60 µl of 2X Laemmli Sample Buffer containing 40 mM dithiothreitol. Half of the eluted proteins were subjected to SDS-PAGE and transferred to nitrocellulose. Immunoblot analysis was carried out using GLUT4 and GLUT1 specific antibodies and quantified using an Odyssey Infrared Imaging System (LI-COR Biosciences, Lincoln, NE).

[3] = target: T2, GLUT1 (Mus musculus, UniProt P17809); assay: ATB-BMPA photolabeling of low-density microsomes (LDM) from 3T3-L1 adipocytes, GLUT1; format: binding; conditions: for IC50: LDM 200 µg, biotinylated ATB-BMPA 50 µM, mean ± S.E., n = 3, read-out: Half-maximal inhibition (IC50) of ATB-BMPA binding to GLUT1
T2 construct: LDM contains small intracellular vesicles of GLUT4 and GLUT1; endogenous in cells; host or cells: low-density microsome fraction of differentiated 3T3-L1 adipocytes
T2 sequence (P17809 1-492): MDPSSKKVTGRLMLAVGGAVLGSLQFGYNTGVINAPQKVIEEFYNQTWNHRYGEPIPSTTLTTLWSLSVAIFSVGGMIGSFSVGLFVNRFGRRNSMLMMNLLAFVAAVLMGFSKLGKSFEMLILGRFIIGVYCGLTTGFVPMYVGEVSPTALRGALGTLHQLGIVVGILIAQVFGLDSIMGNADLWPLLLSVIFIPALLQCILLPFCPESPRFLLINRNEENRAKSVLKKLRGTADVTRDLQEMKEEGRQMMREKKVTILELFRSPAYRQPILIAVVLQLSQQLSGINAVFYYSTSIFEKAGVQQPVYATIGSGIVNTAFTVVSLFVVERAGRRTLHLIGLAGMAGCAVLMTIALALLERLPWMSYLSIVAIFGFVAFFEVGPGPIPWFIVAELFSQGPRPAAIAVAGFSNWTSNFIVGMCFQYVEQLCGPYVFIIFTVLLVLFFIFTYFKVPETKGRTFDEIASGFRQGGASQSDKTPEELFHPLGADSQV
Description: as §1, §2, §3

[4] = system: primary rat adipocytes; assay: 2-Deoxyglucose uptake in insulin-stimulated primary rat adipocytes (predominantly GLUT4); format: cell-based; conditions: for Effect on 2-deoxyglucose uptake (GLUT4 transporter activity): primary rat adipocytes
Description: Adipocytes from epididymal fat pads were prepared from male Wistar rats weighing 150 – 200 g (from Charles River Laboratories, Inc., Wilmington, MA) as previously described. Adipocytes were stimulated with 1 µM insulin for 30 min at 37°C prior to use. 2-Deoxyglucose uptakes were performed by adding 80 µl of the cell suspension to 80 µl of Krebs-Ringer bicarbonate Hepes buffer (KRB) (120 mM NaCl, 4 mM KH2PO4, 1 mM MgSO4, 1 mM CaCl2, 10 mM NaHCO3, 200 nM adenosine, 30 mM Hepes, pH 7.4) containing 3% bovine serum albumin. HIV protease inhibitors / vehicle were added 5 min prior to the initiation of the reaction. Uptakes were initiated with the addition of 20 µl of [^3H]2-deoxyglucose (final 2-deoxyglucose concentration 50 µM; 0.5 µCi/assay). After 1 min at 37 °C, reactions were quenched with cytochalasin B to a final concentration of 0.4 mM. The cells were separated by spinning the reaction through dinonylphthalate as previously described and the intracellular radioactivity was quantified by liquid scintillation counting. Non-specific uptake measured in the presence of 20 µM cytochalasin B (Sigma) was subtracted from the experimental values.

[5] = target: T1, GLUT4; assay: Kinetic (Scatchard) analysis of indinavir effect on ATB-BMPA labeling of GLUT4 in LDM; format: binding; set-up: LDM contains small intracellular vesicles of GLUT4 and GLUT1; endogenous in cells; host or cells: low-density microsome fraction of differentiated 3T3-L1 adipocytes; conditions: Scatchard plot
Description: ATB-BMPA (50, 100, 200, 300 µM final concentration) was then added for an additional 10 min (5 min at room temperature, 5 min at 4 °C). Samples (110 µl final volume) were UV irradiated as described above. After removal of excess label with a desalting spin column, GLUT4 protein was immunoprecipitated from Thesit-solubilized LDM using a GLUT4 C-terminal directed antibody. ATB-BMPA-bound GLUT4 was analyzed by immunoblot analysis using an IR Dye 800 CW fluorescent streptavidin (LI-COR) and quantified with an Odyssey Infrared Imaging System. Identical samples that were not UV irradiated were used to correct for non-specific binding. The free ATB-BMPA concentration was assumed to be equal to the total ATB-BMPA concentration since the label concentration far exceeded the GLUT4 concentration. The data was expressed as Scatchard plots, bound/free versus bound. The Bmax and Kd values were determined from the horizontal intercept and the negative […], respectively.

[6] = target: insulin-stimulated rat adipocytes; conditions: read-out: Ki for inhibition of sugar uptake; cited from earlier work
[7] = target: human erythrocytes; set-up: method as in PMID 2390055; conditions: read-out: Ki for inhibition of sugar uptake; cited from earlier work
[8] = system: myotubes; set-up: method as in PMID 1401073; conditions: read-out: IC50 for inhibition of 2-deoxy-glucose uptake into myotubes; cited from earlier work
[9] = 10 µM PI (therapeutic concentration)

| SMILES | Effect on 2-deoxyglucose uptake (GLUT1 transporter activity) ([1]; 50 µM PI) | Effect on ATB-BMPA labeling of GLUT4 ([2]; 50 µM PI) | Effect on ATB-BMPA labeling of GLUT1 ([3]; 50 µM PI) | Effect on 2-deoxyglucose uptake (GLUT4 transporter activity) ([4]; 50 µM PI) | Effect on 2-deoxyglucose uptake (GLUT1 transporter activity) ([1]; 10 µM PI) | Effect on ATB-BMPA labeling of GLUT4 [2, 9] | IC50 [2] | Effect on ATB-BMPA labeling of GLUT1 [3, 9] | IC50 [3] | Effect on 2-deoxyglucose uptake (GLUT4 transporter activity) ([4]; 10 µM PI) | further results |
| --- | --- | --- | --- | --- | --- | --- | --- | --- | --- | --- | --- |
| CC(C)c1nc(CN(C)C(=O)N[C@H](C(=O)N[C@@H](Cc2ccccc2)C[C@H](O)[C@H](Cc2ccccc2)NC(=O)OCc2cncs2)C(C)C)cs1 [Ritonavir, ritonavir] | affected | affected | affected | affected | – | – | – | – | – | – | – |
| COC(=O)N[C@H](C(=O)N[C@@H](Cc1ccccc1)[C@@H](O)CN(Cc1ccc(-c2ccccn2)cc1)NC(=O)[C@@H](NC(=O)OC)C(C)(C)C)C(C)(C)C [Atazanavir, atazanavir] | affected | affected | affected | affected | no effect | no effect | 66 ± 3.3 µM | no effect | 59 ± 4.8 µM | no effect | Selectivity GLUT4 vs GLUT1, inhibition of ATB-BMPA labeling [2]: non-specific GLUT inhibitor; Selectivity GLUT4 vs GLUT1, inhibition of ATB-BMPA labeling ([2]; listed as atazanavir): non-selective; Selectivity GLUT4 vs GLUT1, inhibition of glucose uptake ([4]; primary rat adipocytes vs 3T3-L1 fibroblasts): non-specific GLUT inhibitor |
| O=C(CCCCC1SCC2NC(=O)NC21)NCCCCCC(=O)NCCOCCOCCOc1cc(C2(C(F)(F)F)N=N2)ccc1C(=O)NC(CO[C@H]1[C@H](O)[C@H](O)C(O)O[C@@H]1CO)CO[C@H]1[C@H](O)[C@H](O)C(O)O[C@@H]1CO (stereo partly shown) [ATB-BMPA] | – | – | – | – | – | – | – | – | – | – | Kd ([5]; 0 µM indinavir, read-out: Kd of ATB-BMPA binding to GLUT4): 75 µM; Kd ([5]; 10 µM indinavir, read-out: Kd (apparent) of ATB-BMPA binding to GLUT4): 152 µM; Kd ([5]; 20 µM indinavir, read-out: Kd (apparent) of ATB-BMPA binding to GLUT4): 218 µM; Kd ([5]; 50 µM indinavir, read-out: Kd (apparent) of ATB-BMPA binding to GLUT4): 510 µM; Ki [6]: ~350 µM; Ki [7]: ~350 µM |
| CCC[C@@]1(CCc2ccccc2)CC(O)=C([C@H](CC)c2cccc(NS(=O)(=O)c3ccc(C(F)(F)F)cn3)c2)C(=O)O1 [Tipranavir] | no effect | no effect | no effect | no effect | no effect | no effect | – | no effect | – | no effect | – |
| C=C1[C@@H](C)[C@H]2[C@H](Cc3ccccc3)NC(=O)[C@]23OC(=O)/C=C/[C@H](O)CCC[C@@H](C)C/C=C/[C@H]3[C@@H]1O [CB, cytochalasin B] | – | – | – | – | – | – | 0.44 ± 0.07 µM | – | 0.35 µM and 0.36 µM | – | IC50 [8]: 0.4 µM |
